Data set [1] deals with T1, Cysteine protease ATG4B (Homo sapiens) (UniProt Q9Y4P1).
T1 sequence (whole entry): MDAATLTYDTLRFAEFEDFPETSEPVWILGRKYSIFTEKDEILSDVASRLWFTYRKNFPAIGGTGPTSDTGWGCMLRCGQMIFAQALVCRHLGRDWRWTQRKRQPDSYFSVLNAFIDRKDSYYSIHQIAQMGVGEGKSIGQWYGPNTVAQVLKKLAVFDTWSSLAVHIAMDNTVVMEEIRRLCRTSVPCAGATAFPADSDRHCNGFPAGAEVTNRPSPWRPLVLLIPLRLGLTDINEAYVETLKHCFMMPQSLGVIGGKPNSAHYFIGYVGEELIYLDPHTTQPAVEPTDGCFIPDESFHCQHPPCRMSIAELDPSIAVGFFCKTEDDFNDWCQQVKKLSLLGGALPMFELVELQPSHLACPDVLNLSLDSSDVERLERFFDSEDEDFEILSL
The data set is described as follows: Inhibition of ATG4B (unknown origin) at 1.6 uM incubated up to 1 hr in presence of fluorescent protein substrate by FRET-based-LC3 cleavage assay relative to control.

In data set [2] the target is T1, Cysteine protease ATG4B (Homo sapiens). The data set is described as follows: Inhibition of ATG4B (unknown origin) at 100 uM incubated up to 1 hr in presence of fluorescent protein substrate by FRET-based-LC3 cleavage assay relative to control.
Data set [3] has as its system MDA-MB-231. The data set is described as follows: Cytotoxicity against human MDA-MB-231 cells assessed as induction of cell killing incubated for 72 hrs by crystal violet staining based assay. The class given is functional. Particulars: MDA-MB-231, 72 h.
Data set [4] can be described thus: Cytotoxicity against human SUM149PT-R75 cells assessed as induction of cell killing incubated for 72 hrs by crystal violet staining based assay. In kind it is functional.
A further data set deals with SUM149PT. The data set is described as follows: Cytotoxicity against human SUM149PT cells assessed as induction of cell killing incubated for 72 hrs by crystal violet staining based assay. The class given is functional.
A short description of data set [5]: Cytotoxicity against human MDA-MB-231-R8 cells assessed as induction of cell killing incubated for 72 hrs by crystal violet staining based assay. The class given is functional.
The target of the next data set is T2, Cysteine protease ATG4B (Homo sapiens, UniProt Q9Y4P1).
T2 sequence (Q9Y4P1 whole entry): T1 sequence (whole entry)
As to the kind of experiment: Inhibition of ATG4B (unknown origin) incubated up to 1 hr in presence of fluorescent protein substrate by FRET-based-LC3 cleavage assay.

In the next data set the test system is BV-173. As to the kind of experiment: Cytotoxicity against human BV173 cells assessed as reduction in colony forming cells at 5 to 10 uM in presence of 0.25 to 0.5 uM imatinib incubated for 2 weeks. In kind it is functional, cell-based.
The next data set relates to Bone marrow cell. As to the kind of experiment: Cytotoxicity against human CD34+ normal bone marrow cells […] assessed as reduction in colony forming cells up to 10 uM incubated for 12 to 14 days. In kind it is cell-based.
The test system of data set [6] is MDA-MB-231. The data set is described as follows: Inhibition of autophagic flux in bafilomycin A-treated human MDA-MB-231 cells assessed as increase in LC3B-II levels at 50 uM by Western blot analysis. The class given is functional, cell-based.
For data set [7], the system named is MDA-MB-231. The data set is described as follows: Inhibition of autophagic flux in wortmannin-treated human MDA-MB-231 cells assessed as increase in p62 levels at 50 uM by Western blot analysis. The class given is functional, cell-based.
The test system of data set [8] is K562. As to the kind of experiment: Synergistic cytotoxicity against human K562 cells assessed as reduction in cell viability at 5 to 10 uM in presence of 0.5 uM imatinib incubated for 72 hrs by trypan blue staining based assay relative to compound alone. The class given is functional.
Data set [9] relates to MDA-MB-231. As to the kind of experiment: Inhibition of autophagic flux in bafilomycin A-treated human MDA-MB-231 cells assessed as increase in p62 levels at 50 uM by Western blot analysis. The class given is functional, cell-based. Background: In western blotting, separated proteins are transferred to a membrane and probed.
Data set [10] relates to K562. The data set is described as follows: Synergistic induction of apoptosis in human K562 cells assessed as reduction in cell viability at 5 to 10 uM in presence of 0.5 uM imatinib incubated for 72 hrs by Annexin V-APC and propidium iodide staining based flow cytometry relative to compound alone. The class given is functional. Background: Flow cytometry measures light scatter and fluorescence of single cells or particles in a stream.

For data set [11], the species on record is Homo sapiens. As to the kind of experiment: Cytotoxicity against human CD34+ CML cells obtained from IM-nonresponding patient assessed as reduction in colony forming cells at 10 uM in presence of 5 imatinib incubated for 12 to 14 days. The class given is functional, cell-based.
Data set [12] relates to MDA-MB-231. As to the kind of experiment: Inhibition of autophagic flux in wortmannin-treated human MDA-MB-231 cells assessed as increase in LC3B-II levels at 50 uM by Western blot analysis. The class given is functional, cell-based.
The species entered for data set [13] is Homo sapiens. The data set is described as follows: Cytotoxicity against human CD34+ CML cells obtained from IM-nonresponding patient assessed as reduction in colony forming cells at 10 uM in presence of 150 nM DA incubated for 12 to 14 days. In kind it is functional, cell-based.

Each structure is given as a SMILES string. Activity calls are given as the source filed them. The rule behind the calls is not given here.

The term inhibition denotes how much of the control response was suppressed. By IC50 is commonly meant the concentration that gives 50% inhibition.

For the compound `O=C(Nc1ncc([N+](=O)[O-])s1)NC(Cc1ccccc1)C(=O)O` (stereo not drawn), the inhibition in [1] turned out to be 0%; in data set [2], 17%.

Take `O=C(Nc1ccccn1)Nc1ncc([N+](=O)[O-])s1`: the values for the inhibition in data set [1] and in data set [2] were 0% and 3%, respectively.

For `O=C(O)CCC(NC(=O)Nc1ncc([N+](=O)[O-])s1)C(=O)O` (stereo not drawn), the results for the inhibition in [1] and in data set [2] were 10% and 27%, respectively.

Turning to `O=C(Nc1ccccc1)Nc1ncc([N+](=O)[O-])s1`, the inhibition in [1] came out at 17%; in data set [2], 21%.

As to `COc1ccc(CNC(=O)Nc2ncc([N+](=O)[O-])s2)cc1`, the IC50 in the data set on MDA-MB-231 [3] was 17.6 to 23.4 µM; in [4] it was 26 to 35.1 µM; with SUM149PT it was 15.2 to 22.6 µM; in data set [5] it was 5.92 to 9.09 µM; on Cysteine protease ATG4B it was 1.6 µM.

In the case of `O=C(NCc1ccccc1)Nc1ncc([N+](=O)[O-])s1`, the result with BV-173, in the data set with MDA-MB-231 [6], in the data set on MDA-MB-231 [7], with K562 [8], in the data set with MDA-MB-231 [9] and with K562 [10] was Active. The outcome in the data set filed under Homo sapiens [11], with MDA-MB-231 [12] and in the data set filed under Homo sapiens [13] was Active. For the same compound, the Activity entry with Bone marrow cell is recorded as “Non-Toxic”. Also, the IC50 with MDA-MB-231 [3] is 42.9 to 59.1 µM; in data set [4], 24.5 to 34.1 µM; in the data set on SUM149PT, 25.6 to 33.2 µM; in [5], 23.3 to 30.8 µM; on Cysteine protease ATG4B it was 1.7 µM.

Source of the values: ChEMBL document CHEMBL4482321, “Compounds and methods for treatment of cancer by inhibiting atg4b and blocking autophagy” (2017).
